How the values were obtained:
[1] = biological target: T1, collagenase (Homo sapiens, UniProt P03956); test: Inhibition of collagenase (procedure of Cawston and Barrett, acetylated 14C collagen); type: biochemical; conditions: 37°, 16 hours, pH 7.5
T1 sequence (P03956 100-469): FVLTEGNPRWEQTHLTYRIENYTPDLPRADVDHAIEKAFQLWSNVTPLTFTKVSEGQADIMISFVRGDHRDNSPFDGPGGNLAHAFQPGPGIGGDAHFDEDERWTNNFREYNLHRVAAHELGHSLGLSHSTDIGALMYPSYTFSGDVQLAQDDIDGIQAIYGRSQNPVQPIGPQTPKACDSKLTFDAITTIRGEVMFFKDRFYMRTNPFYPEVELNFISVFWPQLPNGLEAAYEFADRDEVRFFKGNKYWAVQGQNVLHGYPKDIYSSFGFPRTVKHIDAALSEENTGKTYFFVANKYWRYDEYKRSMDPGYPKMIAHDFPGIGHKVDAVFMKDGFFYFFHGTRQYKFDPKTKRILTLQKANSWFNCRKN
Method: The potency of compounds of the invention as inhibitors of collagenase was determined by the procedure of Cawston and Barrett, (Anal. Biochem., 99, 340-345, 1979), hereby incorporated by reference, whereby a 1 mM solution of the compound being tested, or a dilution thereof, was incubated at 37° for 16 hours with collagen and collagenase (buffered with 25 mM Hepes, pH 7.5 containing 5 mM CaCl2, 0.05% Brij 35 and 0.02% NaN3). The collagen was acetylated ^14 C collagen prepared by the method of Cawston and Murphy, (Methods in Enzymology, 80, 711, 1981), hereby incorporated by reference. The samples were centrifuged to sediment undigested collagen, and an aliquot of the radioactive supernatant removed for assay on a scintillation counter as a measure of hydrolysis.

[2] = Systemic blood concentration of inhibitor over 24 hours after oral dosing in rats, by collagenase inhibitory activity of blood extracts; type: in vivo, rat; conditions: 10 mg/kg in PBS/0.1% Tween 80 by gavage, male rats, 0.5-24 hours, drug plus any active metabolites, collagenase assay
Method: The biological efficacy of a compound of the invention in chronic disease states is a function of the systemic blood concentration maintained over time, and its intrinsic potency. These factors can be quantified as IC50.hrs (24 hrs), which parameter is defined as the total number of IC50 s in the blood over the 24 hours post dosing, the IC50 being defined as the concentration of the compound that reduces collagenase activity to 50% of its normal value.:
Test compounds were administered at 10 mg/kg in PBS/0.1% Tween 80 by gavage to 6 male rats (300 g) per treatment group. Blood samples were removed by tail venepuncture at 0.5, 1.0, 2.0, 6.0 and 24 hours post administration. 0.5 ml of blood was placed into 4.5 ml tubes containing 0.1 ml acid citrate dextrose (ACD) as anti-coagulant. For extraction, 3 ml methanol was added and the precipitated blood pelletted by centrifugation (30 min at 3000 rpm). A 2 ml aliquot of supernatant was removed and dried by lyophilisation. The extract was redissolved in 200 μl DMSO and a 10 μl aliquot assayed for collagenase inhibitory activity. The inhibitory activity in the extracts was determined using the collagenase assay described in Biological Example A above, and the concentration of inhibitor (that is drug plus any active metabolites) obtained by comparison with standard curves. […]

[3] = test system: rat adjuvant arthritis model; test: Rat adjuvant arthritis model, hindpaw oedema volume; type: in vivo; conditions: male Lewis rats, two doses of 10 mg/kg orally each day, day 13 to day 17
Method: The compound of Example 1 was tested in a rat adjuvant arthritis model.
Adjuvant arthritis was produced in male Lewis rats (Charles River) by a single intradermal injection of 0.75 mg of M. butyricum in light parafin oil (Freund's complete adjuvant) into the base of the tail. The "secondary" lesion occurs after a delay of 10 days, and is characterised by inflammation of the hindpaws. Hindpaw oedema volumes were measured plethysmographically by water displacement. Animals in the treated groups received two doses of 10 mg/kg of the test compound in PBS/0.1% Tween orally, each day, from day 13 to day 17. Results are reported as paw volume change from the volume measured on day 13.

[4] = biological target: stromelysin (Homo sapiens, UniProt P08254); test: Inhibition of stromelysin (procedure of Cawston et al, acetylated 14C casein); type: biochemical; conditions: 37°, 16 hours, pH 7.5
Method: The potency of compounds of the invention as inhibitors of stromelysin was determined by the procedure of Cawston et al, (Biochem. J., 195, 159-165, 1981), hereby incorporated by reference, whereby a 1 mM solution of the compound being tested, or a dilution thereof, was incubated at 37° for 16 hours with stromelysin and ^14 C acetylate casein (buffered with 25 mM Hepes, pH 7.5 containing 5 mM CaCl2, 0.05% Brij 35 and 0.02% NaN3). The casein was acetylated ^14 C casein prepared by the method of Cawston et al (ibid).

stromelysin, sequence (P08254 100-477): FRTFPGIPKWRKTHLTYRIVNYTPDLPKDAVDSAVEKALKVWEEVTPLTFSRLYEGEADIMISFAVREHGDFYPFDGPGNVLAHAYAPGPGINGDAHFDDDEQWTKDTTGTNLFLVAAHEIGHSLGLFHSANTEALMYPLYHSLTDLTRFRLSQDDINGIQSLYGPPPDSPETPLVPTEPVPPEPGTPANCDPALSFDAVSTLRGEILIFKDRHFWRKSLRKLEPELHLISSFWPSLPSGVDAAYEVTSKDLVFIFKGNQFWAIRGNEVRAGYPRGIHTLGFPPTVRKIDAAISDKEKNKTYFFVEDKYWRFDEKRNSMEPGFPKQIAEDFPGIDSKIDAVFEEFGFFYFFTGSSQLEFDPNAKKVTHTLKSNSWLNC

| IC50 [1] [nM] | AUC (IC50.hrs (24hrs)) [2] [IC50.hrs] | IC50 [4] [nM] | SMILES | paw volume change, Day 17 (% relative to day 13) ([3]; Day 17) [%] | paw volume change, Day 20 (% relative to day 13) ([3]; Day 20) [%] |
| --- | --- | --- | --- | --- | --- |
| 10 | 233 |  | C=CC[C@H](C(=O)NO)[C@@H](CC(C)C)C(=O)N[C@@H](Cc1ccccc1)C(=O)NC [Example 1, 3R-(2-Phenyl-1S-methylcarbamoyl-ethylcarbamoyl)-5-methyl-2S-2-propenyl-hexanohydroxamic acid] | 52 | 65 |
| 3 to 4 | 970 | 80 | C=CC[C@H](C(=O)NO)[C@@H](CC(C)C)C(=O)N[C@H](C(=O)NC)C(C)(C)C [Example 5, 3R-(2,2-Dimethyl-1S-methylcarbamoyl-propylcarbamoyl)-5-methyl-2S-2-propenyl-hexanohydroxamic acid] |  |  |
| 10 |  | 5 | C=CC[C@H](C(=O)NO)[C@@H](CC(C)C)C(=O)N[C@@H](Cc1ccccc1)C(=O)NCc1ccccc1 [Example 7, 3R-(2-Phenyl-1S-phenylmethylcarbamoyl-ethylcarbamoyl)-5-methyl-2S-2-propenyl-hexanohydroxamic acid] |  |  |

Reference: patent US5652262A, “Hydroxamic acid derivatives as metalloproteinase inhibitors” (British Biotech Pharmaceutical, Ltd., priority 1993, dated 1997)
